With `CC(C)(C)c1ccc(OCC(=O)NCc2ccc(NS(C)(=O)=O)c(O)c2)cc1` [Example 12, 2-(4-tert-Butylphenoxy) -N-{3-hydroxy-4-[(methylsulfonyl)amino]benzyl}acetamide], the melting point (as a rule, the temperature of the solid-liquid transition) was 112.3 °C.
For the compound `CC(C)(C)c1ccc(OCC(=O)NCc2ccc(NS(C)(=O)=O)cc2)cc1` [Example 9, 2-(4-tert-Butylphenoxy)-N-{4-[(methylsulfonyl)amino]benzyl}acetamide], the melting point was 163.1 °C.

Source of the values: patent publication US7214824B2, “Substituted N-sulfonylaminobenzyl-2-phenoxyacetamide compounds as VR1 receptor agonists” (Pfizer Inc., priority 2004, dated 2007).
